# Reference: patent US8053441B2, “Pyrazolylquinazolinones as potassium channel openers” (Janssen Pharmaceutica N.V., priority 2006, dated 2011)
# Target: T1, KATP channels (Homo sapiens, UniProt O60706+Q14654)
# T1 construct: TE671 human medulloblastoma cells were obtained from ATCC; host or cells: TE671 human medulloblastoma cells
# Assay: Potassium Channel Assay (FLIPR membrane potential)
# Type: cell-based
# Parameters: key: A compound was designated as active if it produced greater than or equal to 10% response at 30 μM; A compound was designated as inactive if it produced less than 10% response at 30 μM
# Details: TE671 human medulloblastoma cells, 30 μM, Membrane Potential Assay Dye
# Protocol: TE671 human medulloblastoma cells were obtained from ATCC and grown in Dulbecco's modified Eagle's medium (DMEM) supplemented with 10% fetal bovine serum, 100 U/ml penicillin and 100 U/ml streptomycine.
# The day before testing, the cells were plated in black 96-well plates at 50K/well. On the day of testing, the growth media was removed, then 100 μl of FLIPR buffer (20 mM HEPES, 120 mM NaCl, 2 mM KCl, 2 mM CaCl2, 1 mM MgCl2, 5 mM Glucose) and 100 μl of Membrane Potential Assay Dye (Molecular Devices) dissolved in FLIPR buffer were added to each well. The cells were incubated at room temperature for 15 to 30 min.
# The effect of test compounds on KATP channels were evaluated on a fluorometric imaging plate reader (FLIPR, Molecular Devices) at room temperature. After a baseline period, 50 μl of 5× stock solution of test compound prepared in FLIPR buffer was added and fluorescent change was monitored for 3 minutes. After this reading, glyburide, a KATP channel blocker, was added to a final concentration of 5 μM to check the specificity of the test compound as a KATP channel openers. Hyperpolarization resulting from KATP channel opening was observed as a decrease in fluorescent intensity.
# Representative compounds of the present invention were tested according to the procedure described above, with results as listed in Table 2 below. Test compound activity was determined as the percent. A compound was designated as active if it produced greater than or equal to 10% response at 30 μM.
# T1 sequence (O60706 1-1549 isoform O60706-2): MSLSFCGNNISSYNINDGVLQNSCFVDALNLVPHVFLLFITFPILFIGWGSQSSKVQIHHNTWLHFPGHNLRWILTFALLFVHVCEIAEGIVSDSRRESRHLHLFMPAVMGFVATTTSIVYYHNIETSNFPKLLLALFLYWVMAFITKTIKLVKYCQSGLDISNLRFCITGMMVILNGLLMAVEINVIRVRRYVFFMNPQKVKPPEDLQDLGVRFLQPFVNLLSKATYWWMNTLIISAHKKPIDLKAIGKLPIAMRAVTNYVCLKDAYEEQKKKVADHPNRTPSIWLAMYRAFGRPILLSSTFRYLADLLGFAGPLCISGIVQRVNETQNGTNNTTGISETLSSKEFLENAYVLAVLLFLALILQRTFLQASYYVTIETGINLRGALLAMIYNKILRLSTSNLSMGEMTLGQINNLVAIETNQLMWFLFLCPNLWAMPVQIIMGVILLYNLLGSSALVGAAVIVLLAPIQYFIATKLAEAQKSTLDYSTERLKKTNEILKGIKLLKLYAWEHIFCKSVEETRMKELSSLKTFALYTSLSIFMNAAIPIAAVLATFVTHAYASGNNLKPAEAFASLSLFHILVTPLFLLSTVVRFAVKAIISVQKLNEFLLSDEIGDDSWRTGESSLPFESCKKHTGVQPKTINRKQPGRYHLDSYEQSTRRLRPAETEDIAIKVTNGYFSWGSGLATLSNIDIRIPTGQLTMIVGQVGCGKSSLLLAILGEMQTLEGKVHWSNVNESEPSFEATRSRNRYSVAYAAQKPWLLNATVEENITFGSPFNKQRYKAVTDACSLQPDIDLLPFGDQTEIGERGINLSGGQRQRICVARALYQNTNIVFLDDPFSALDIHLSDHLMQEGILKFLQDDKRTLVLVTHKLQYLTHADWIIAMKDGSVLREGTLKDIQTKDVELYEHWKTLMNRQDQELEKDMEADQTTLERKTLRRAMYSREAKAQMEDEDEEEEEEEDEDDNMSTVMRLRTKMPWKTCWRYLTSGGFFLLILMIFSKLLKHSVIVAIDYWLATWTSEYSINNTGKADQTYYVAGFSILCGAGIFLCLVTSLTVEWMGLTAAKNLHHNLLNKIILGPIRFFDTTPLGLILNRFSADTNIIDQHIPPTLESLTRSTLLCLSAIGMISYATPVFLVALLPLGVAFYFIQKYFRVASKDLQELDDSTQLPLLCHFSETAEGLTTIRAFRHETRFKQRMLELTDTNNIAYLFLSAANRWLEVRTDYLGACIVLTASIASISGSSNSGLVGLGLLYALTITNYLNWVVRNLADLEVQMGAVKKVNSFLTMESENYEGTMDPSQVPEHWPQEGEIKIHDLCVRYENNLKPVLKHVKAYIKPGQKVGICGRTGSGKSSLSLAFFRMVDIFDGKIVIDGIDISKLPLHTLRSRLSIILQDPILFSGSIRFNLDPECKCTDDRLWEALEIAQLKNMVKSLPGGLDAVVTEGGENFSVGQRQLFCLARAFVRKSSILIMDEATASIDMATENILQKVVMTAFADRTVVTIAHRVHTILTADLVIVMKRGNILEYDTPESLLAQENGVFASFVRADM
# T1 sequence (Q14654 whole entry): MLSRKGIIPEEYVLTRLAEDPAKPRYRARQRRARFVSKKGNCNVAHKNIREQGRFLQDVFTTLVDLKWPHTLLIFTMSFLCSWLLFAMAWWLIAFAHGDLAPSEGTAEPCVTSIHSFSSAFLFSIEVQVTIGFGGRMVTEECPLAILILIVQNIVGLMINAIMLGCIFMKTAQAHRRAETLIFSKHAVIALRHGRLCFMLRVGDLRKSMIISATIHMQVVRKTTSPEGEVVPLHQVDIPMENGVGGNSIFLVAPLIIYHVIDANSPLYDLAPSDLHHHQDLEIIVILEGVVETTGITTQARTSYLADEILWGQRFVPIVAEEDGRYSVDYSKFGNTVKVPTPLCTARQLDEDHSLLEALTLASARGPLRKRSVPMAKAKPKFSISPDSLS
row,SMILES,response
1,"CC1(c2nc3ccc(Cl)cc3c(=O)[nH]2)CC=NN1 (stereo not shown) [compound 1, 6-Chloro-2-(3-methyl-3,4-dihydro-2H-pyrazol-3-vi)-3H-quinazolin-4-one]",active
2,"CC1(c2nc3ccc(Br)cc3c(=O)[nH]2)CC=NN1 (stereo not shown) [compound 2, 6-Bromo-2-(3-methyl-3,4-dihydro-2H-pyrazol-3-vi)-3H-quinazolin-4-one]",active
3,"CC1(c2nc3cc(C(F)(F)F)ccc3c(=O)[nH]2)CC=NN1 (stereo not shown) [compound 3, 2-(3-Methyl-3,4-dihydro-2H-pyrazol-3-yl)-7-trifluoromethyl-3H-quinazolin-4-one]",active
4,"CCOC(=O)C1=NNC(C)(c2nc3ccc(Cl)cc3c(=O)[nH]2)C1 (stereo not shown) [compound 4, 5-(6-Chloro-4-oxo-3,4-dihydro-quinazolin-2-yl)-5-methyl-4,5-dihydro-1H-pyrazole-3-carboxylic acid ethyl ester]",active
